Measurements from the supplement of paper PMC10307832.

Columns and labels:
Test in all cases: relative viability (nuclei count vs DMSO), 5 days (fraction); higher = more cells survive
[1] = compound: C(C(=O)C(=O)O)Br [Bromopyruvate] + Nc1nc2[nH]cc(CCc3ccc(C(=O)N[C@@H](CCC(=O)O)C(=O)O)cc3)c2c(=O)[nH]1 [Pemetrexed] (partner 0.2 µM)
How it was run: (§1)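 Medians of duplicate plates are given as relative viability. That measure is the nuclei count in treated wells divided by the count in vehicle wells. Counts were taken on 4× images of lung cancer cell lines in 1536-well plates, 5 days after pin-tool dosing the day after seeding with one drug alone or a fixed anchor-drug dose plus five library-drug doses (not always all listed) in √10 steps.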

[2] = compound: CC(O)(CS(=O)(=O)c1ccc(F)cc1)C(=O)Nc1ccc(C#N)c(C(F)(F)F)c1 [Bicalutamide] + CC(=O)Nc1cccc(-n2c(=O)n(C3CC3)c(=O)c3c(Nc4ccc(I)cc4F)n(C)c(=O)c(C)c32)c1 [Trametinib] (partner 0.02 µM)
How it was run: as §1

Bicalutamide + Lapatinib = compound: CC(O)(CS(=O)(=O)c1ccc(F)cc1)C(=O)Nc1ccc(C#N)c(C(F)(F)F)c1 [Bicalutamide] + CS(=O)(=O)CCNCc1ccc(-c2ccc3ncnc(Nc4ccc(OCc5cccc(F)c5)c(Cl)c4)c3c2)o1 [Lapatinib] (partner 2 µM)
How it was run: as §1

[3] = compound: CC(O)(CS(=O)(=O)c1ccc(F)cc1)C(=O)Nc1ccc(C#N)c(C(F)(F)F)c1 [Bicalutamide] + Nc1ncn([C@H]2C[C@H](O)[C@@H](CO)O2)c(=O)n1 [Decitabine] (partner 2 µM)
How it was run: as §1

UMC-11
relative viability ([1]; first compound 1 µM): 0.801
relative viability ([1]; first compound 3.162 µM): 0.841
relative viability ([1]; first compound 10 µM): 0.777
relative viability ([1]; first compound 31.62 µM): 0.708
relative viability ([1]; first compound 100 µM): 0.736
relative viability ([2]; first compound 0.08 µM): 0.771
relative viability ([2]; first compound 0.253 µM): 0.572
relative viability ([2]; first compound 0.8 µM): 0.808
relative viability ([2]; first compound 2.53 µM): 0.686
relative viability (Bicalutamide + Lapatinib; first compound 0.08 µM): 0.951
relative viability (Bicalutamide + Lapatinib; first compound 0.253 µM): 0.723
relative viability (Bicalutamide + Lapatinib; first compound 0.8 µM): 1.12
relative viability (Bicalutamide + Lapatinib; first compound 2.53 µM): 0.899
relative viability ([3]; first compound 0.08 µM): 0.535
relative viability ([3]; first compound 0.253 µM): 0.507
relative viability ([3]; first compound 0.8 µM): 0.623
relative viability ([3]; first compound 2.53 µM): 0.555
